Data taken from PMC10718076, “1,2-Disubstituted bicyclo[2.1.1]hexanes as saturated bioisosteres of ortho-substituted benzene” (Chemical Science, 2023).
Where two headings read alike, the source gives them in different places.

Legend:
[1] = both, human, pH 7.4
[2] = in vitro; conditions: both, human

- % Remaining, Mean of 2 ([1]; microsomes, 25 min, 2 µM): 9%
- % Remaining, Mean of 2 ([1]; s9, 25 min, 2 μM): 9%
- microsomal CLint at 2 µM ([2]; microsomes, pH 7.4): 173 µL/min/mg
- microsomal CLint at 2 μM ([2]; microsomes, pH 7.4): 272 µL/min/mg
- k el at 2 µM ([2]; pH 7.4, kel): 0.0012 s⁻¹
- k el at 2 μM ([2]; pH 7.4, kel): 0.00123 s⁻¹
- microsomal CLint at 2 μM ([2]; s9, pH 7.4): 178 µL/min/mg
Compound: O=C(O)Cc1ccccc1Nc1c(Cl)cccc1Cl [Diclofenac]
